Results as given in patent US9382243B2, “Azabenzimidazole tetrahydropyran derivatives” (Merck Sharp & Dohme Corp., priority 2012, dated 2016).

Tests used:
[1] = biological target: recombinant human AMPK complex 1 (containing α1β1γ1) (Homo sapiens, UniProt Q13131+Q9Y478); test: AMPKSAMSF in vitro AMPK activation assay, complex 1; type: biochemical; details: for Emax: 10-point titration, expressed as % maximum AMP activation; for EC50: inflection point reflecting 50% of the maximum activation, table for human AMPK Complex 1
Procedure: The recombinant human AMPK complex 1 (containing α1β1γ1) or AMPK complex 7 (containing α2β1γ1) was obtained from baculovirus expression system. Recombinant viruses were generated by cotransfection of AMPK/pBacPak9 clones with Baculogold baculovirus DNA (Pharmingen) in spodoptera frugiperda 21 cells according to the manufacturer's instructions. Each round of virus amplification was performed for 5 days in Grace's medium containing 10% serum. Virus that had been subjected to three rounds of amplification was used for all protein production procedures. To express the AMPK complex, sf21 cells were adapted to serum free medium (SF900 II, Invitrogen) by sequential dilution from serum containing stocks into SF900II medium and maintained in shaker flasks at 90 rpm at 27° C. The recombinant AMPK enzyme complex was produced by triple infection, one recombinant virus for each of the subunits, in sf21 cells under serum free conditions. Cells were infected in log phase, 1×10^6 cells/ml, at a multiplicity of infection of ˜5. Cells were harvested by centrifugation at 10,000×g for 15 minutes after 72 hours of infection with viruses. The insect cell pellet from 2 liters of culture was resuspended in 50 ml lysis buffer (20 mM Tris-HCl, 50 mM NaCl, 50 mM NaF, 30 mM Na PPi, 0.25 M sucrose, 10 mM ZnCl2, 2 mM DTT, 0.4 mg/ml digitonin) and subjected to two cycles of freeze-thaw lysis in a dry-ice ethanol bath. Insoluble material was removed by centrifugation at 10,000×g and the supernatant was fractionated with use of polyethylene glycol (PEG). The protein fraction precipitating between 2.5 and 6% PEG was used for further purification using a Blue-Sepharose step (Zhou et al, J. Clin. Invest. 108, 1167-1174, 2001).
The in vitro AMPK activation assay is performed in a volume of 30 μl in a 384-well plate. Enzyme reactions were assembled in the microtiter plate by adding 15 μl of 2× enzyme in assay buffer (20 mM HEPES, pH 7.3, 5 mM MgCl2, 3 mM DTT, 0.01% Brij 35 and CamK Kinase, to activate AMPK) to wells which contained either DMSO or compound. The reaction was initiated with the addition of 15 μl 2× substrate mixture containing 200 μM ATP, and 3.0 μM fluorescently labeled SAMS (5-FAM-HMRSAMSGLHLVKRR-COOH) in assay buffer. After 45-minute incubation at 25° C., the reaction was stopped by the addition of 70 μl stop buffer (100 mM HEPES, pH 7.3, 40 mM EDTA, 0.015% Brij 35). Phosphorylated 5-FAM SAMS product is assessed using a Caliper EZ Reader LabChip microfluidics reader. Product conversion is determined by calculating the peak heights of the substrate and product and reporting the product/(product+substrate) peak ratio. The 10-point titration data were expressed as % maximum AMP activation. The results were plotted using 4 parameter fit and the inflection point reflecting 50% of the maximum activation was reported as the EC50.

[2] = system: ob/ob and db/db mice; details: following 8 weeks of administration; cited from earlier work

Chain of recombinant human AMPK complex 1 (containing α1β1γ1) (Q13131 whole entry): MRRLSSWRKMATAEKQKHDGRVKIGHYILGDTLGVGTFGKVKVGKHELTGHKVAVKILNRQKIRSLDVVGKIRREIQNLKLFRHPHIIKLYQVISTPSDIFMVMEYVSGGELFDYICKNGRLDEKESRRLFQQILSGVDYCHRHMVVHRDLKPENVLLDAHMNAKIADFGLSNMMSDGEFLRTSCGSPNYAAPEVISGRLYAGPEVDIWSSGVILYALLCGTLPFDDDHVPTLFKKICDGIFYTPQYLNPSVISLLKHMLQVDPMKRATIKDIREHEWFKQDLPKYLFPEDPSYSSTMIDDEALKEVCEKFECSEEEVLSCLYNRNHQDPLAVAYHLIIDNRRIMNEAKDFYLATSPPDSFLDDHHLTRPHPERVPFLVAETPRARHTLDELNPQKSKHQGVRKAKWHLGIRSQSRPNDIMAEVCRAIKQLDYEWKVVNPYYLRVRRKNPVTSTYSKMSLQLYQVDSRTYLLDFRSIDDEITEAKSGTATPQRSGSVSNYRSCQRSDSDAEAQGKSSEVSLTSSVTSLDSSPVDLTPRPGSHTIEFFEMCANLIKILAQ
Chain of recombinant human AMPK complex 1 (containing α1β1γ1) (Q9Y478 whole entry): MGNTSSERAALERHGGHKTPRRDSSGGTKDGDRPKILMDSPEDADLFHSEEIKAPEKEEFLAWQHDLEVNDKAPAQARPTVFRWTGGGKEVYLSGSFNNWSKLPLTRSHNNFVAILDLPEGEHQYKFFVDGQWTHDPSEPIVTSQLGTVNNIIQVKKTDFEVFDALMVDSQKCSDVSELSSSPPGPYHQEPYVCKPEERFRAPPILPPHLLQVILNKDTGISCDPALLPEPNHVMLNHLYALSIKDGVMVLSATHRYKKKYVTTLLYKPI
Chain of recombinant human AMPK complex 1 (containing α1β1γ1) (P54619 whole entry partner): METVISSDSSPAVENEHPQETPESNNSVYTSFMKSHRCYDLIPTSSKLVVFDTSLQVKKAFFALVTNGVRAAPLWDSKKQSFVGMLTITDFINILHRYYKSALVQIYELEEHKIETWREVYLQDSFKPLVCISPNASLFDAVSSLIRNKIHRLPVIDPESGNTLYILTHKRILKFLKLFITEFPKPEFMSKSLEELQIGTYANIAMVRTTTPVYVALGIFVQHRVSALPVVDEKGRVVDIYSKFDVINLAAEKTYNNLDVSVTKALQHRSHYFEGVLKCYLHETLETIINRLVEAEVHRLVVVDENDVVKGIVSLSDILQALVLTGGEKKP

SMILES | Emax [1] | EC50 [1] | blood glucose reduction [2]
CC(C)(O)[C@H]1OC[C@H](Oc2nc3cc(Cl)c(-c4ccc(-c5ccccc5)cc4)nc3[nH]2)C[C@@H]1O [Example 70, (2S,3 S,5R)-5-((5-([1,1′-biphenyl]-4-yl)-6-chloro-1H-imidazo[4,5-b]pyridin-2-yl)oxy)-2-(2-hydroxypropan-2-yl)tetrahydro-2H-pyran-3-ol] | 417% | 31 nM | –
OC[C@H]1OC[C@H](Oc2nc3nc(-c4ccc(N5CC[C@@H](O)C5)cc4)c(Cl)cc3[nH]2)C[C@@H]1O [Example 34] | 367% | 19 nM | –
OC[C@H]1OC[C@H](Oc2nc3nc(-c4ccc(-c5ccc(-n6cccn6)cc5)cc4)c(Cl)cc3[nH]2)C[C@@H]1O [Example 45] | 417% | 3 nM | –
O=C(c1ccc(-c2ccc(-c3nc4nc(O[C@H]5CO[C@H](CO)[C@@H](O)C5)[nH]c4cc3Cl)cc2)cc1)N1CCC(O)(C(F)(F)F)CC1 [Example 73] | 249% | 8 nM | –
CC1(O)CCN(C(=O)c2ccc(-c3ccc(-c4nc5nc(O[C@H]6CO[C@H](CO)[C@@H](O)C6)[nH]c5cc4Cl)cc3)cc2)CC1 [Example 72] | 504% | 8 nM | –
OC[C@H]1OC[C@H](Oc2nc3nc(-c4ccc(-c5ccccc5)cc4)c(Cl)cc3[nH]2)[C@@H](O)[C@@H]1O [Example 62, (2R,3 S,4S,5 S)-5-((5-([1,1′-biphenyl]-4-yl)-6-chloro-1H-imidazo[4,5-b]pyridin-2-yl)oxy)-2-(hydroxymethyl)tetrahydro-2H-pyran-3,4-diol] | 545% | 17 nM | –
CC(CO)Oc1ccc(-c2nc3nc(O[C@H]4CO[C@H](CO)[C@@H](O)C4)[nH]c3cc2Cl)cc1 (stereo partly drawn) [Example 1, (2R,3S,5R)-5-((6-chloro-5-(4-((1-hydroxypropan-2-yl)oxy)phenyl)-1H-imidazo[4,5-b]pyridin-2-yl)oxy)-2-(hydroxymethyl)tetrahydro-2H-pyran-3-ol] | 574% | 128 nM | –
NC(c1ccc(-c2ccc(-c3nc4nc(O[C@H]5CO[C@H](CO)[C@@H](O)C5)[nH]c4cc3Cl)cc2)cc1)C(F)(F)F (stereo partly drawn) [Example 49, (2R,3 S,5R)-5-((5-(4′-(1-amino-2,2,2-trifluoroethyl)-[1,1′-biphenyl]-4-yl)-6-chloro-1H-imidazo[4,5-b]pyridin-2-yl)oxy)-2-(hydroxymethyl)tetrahydro-2H-pyran-3-ol] | 464% | 9 nM | –
O=C(c1ccc(-c2ccc(-c3nc4nc(O[C@H]5CO[C@H](CO)[C@@H](O)C5)[nH]c4cc3Cl)cc2)cc1)N1CC[C@@H](O)C1 [Example 61, (4′-(6-chloro-2-(((3R,5 S,6R)-5-hydroxy-6-(hydroxymethyl)tetrahydro-2H-pyran-3-yl)oxy)-1H-imidazo[4,5-b]pyridin-5-yl)-[1,1′-biphenyl]-4-yl)((R)-3-hydroxypyrrolidin-1-yl)methanone] | 568% | 36 nM | –
OC[C@H]1OC[C@H](Oc2nc3nc(-c4ccc(N5CC[C@H](F)C5)cc4)c(Cl)cc3[nH]2)C[C@@H]1O [Example 37] | 473% | 22 nM | –
NC(=O)c1ncn([C@@H]2O[C@H](CO)[C@@H](O)[C@H]2O)c1N [AICAR] | – | – | 35%
O=S(=O)(CC1COC1)c1ccc(-c2ccc(-c3nc4nc(O[C@H]5CO[C@H](CO)[C@@H](O)C5)[nH]c4cc3Cl)cc2)cc1 [Example 54] | 767% | 9 nM | –
COC(=O)Nc1ccc(-c2ccc(-c3nc4[nH]c(O[C@H]5CO[C@H](CO)[C@@H](O)C5)nc4cc3Cl)cc2)cc1 [Example 74, Methyl (4′-(6-chloro-2-(((3R,5S,6R)-5-hydroxy-6-(hydroxymethyl)tetrahydro-2H-pyran-3-yl)oxy)-1H-imidazo[4,5-b]pyridin-5-yl)-[1,1′-biphenyl]-4-yl)carbamate] | 460% | 25 nM | –
O=C(Nc1ccc(-c2ccc(-c3nc4nc(O[C@H]5CO[C@H](CO)[C@@H](O)C5)[nH]c4cc3Cl)cc2)cc1)OCC(O)CO (stereo partly shown) [Example 77] | 494% | 15 nM | –
O=S(=O)(c1ccc(-c2ccc(-c3nc4nc(O[C@H]5CO[C@H](CO)[C@@H](O)C5)[nH]c4cc3Cl)cc2)cc1)C1COC1 [Example 55] | 752% | 8 nM | –
CS(=O)(=O)c1ccc(-c2ccc(-c3nc4nc(O[C@H]5CO[C@H](CO)[C@@H](O)[C@@H]5O)[nH]c4cc3Cl)cc2)cc1 [Example 67] | 418% | 3 nM | –
CNC(=O)c1ccc(-c2ccc(-c3nc4nc(O[C@H]5CO[C@H](CO)[C@@H](O)C5)[nH]c4cc3Cl)cc2)cc1 [Example 71, 4′-(6-chloro-2-(((3R,5 S,6R)-5-hydroxy-6-(hydroxymethyl)tetrahydro-2H-pyran-3-yl)oxy)-1H-imidazo[4,5-b]pyridin-5-yl)-N-methyl-[1,1′-biphenyl]-4-carboxamide] | 443% | 6 nM | –
NS(=O)(=O)c1ccc(-c2ccc(-c3nc4nc(O[C@H]5CO[C@H](CO)[C@@H](O)C5)[nH]c4cc3Cl)cc2)cc1 [Example 56] | 392% | 11 nM | –
OC[C@H]1OC[C@H](Oc2nc3nc(-c4ccc(-c5ccc(-c6ccn[nH]6)cc5)cc4)c(Cl)cc3[nH]2)C[C@@H]1O [Example 46] | 619% | 15 nM | –
O=C(c1ccc(-c2ccc(-c3nc4nc(O[C@H]5CO[C@H](CO)[C@@H](O)[C@@H]5O)[nH]c4cc3Cl)cc2)cc1)N1CCC(O)CC1 [Example 68] | 419% | 6 nM | –
CC(C)(O)c1ccc(-c2ccc(-c3nc4nc(O[C@H]5CO[C@H](CO)[C@@H](O)[C@@H]5O)[nH]c4cc3Cl)cc2)cc1 [Example 66] | 410% | 13 nM | –
OC[C@H]1OC[C@H](Oc2nc3nc(-c4ccc(N5CC[C@@H](F)C5)cc4)c(Cl)cc3[nH]2)C[C@@H]1O [Example 35] | 489% | 18 nM | –
CC(C)(O)c1ccc(-c2ccc(-c3nc4nc(O[C@H]5CO[C@H](CO)[C@@H](O)C5)[nH]c4cc3Cl)cc2)cc1 [Example 39, (2R,3 S,5R)-5-((6-chloro-5-(4′-(2-hydroxypropan-2-yl)-[1,1′-biphenyl]-4-yl)-1H-imidazo[4,5-b]pyridin-2-yl)oxy)-2-(hydroxymethyl)tetrahydro-2H-pyran-3-ol] | 379% | 4 nM | –
OC[C@H]1OC[C@H](Oc2nc3nc(-c4ccc(-c5ccc(-n6ccnn6)cc5)cc4)c(Cl)cc3[nH]2)C[C@@H]1O [Example 48] | 615% | 2 nM | –
OC[C@H]1OC[C@H](Oc2nc3nc(-c4ccc(-c5ccc(-n6nccn6)cc5)cc4)c(Cl)cc3[nH]2)C[C@@H]1O [Example 47] | 590% | 25 nM | –
